Like-named read-outs stand apart in the source and are kept apart here.
How the values were obtained:
[1] = system: PRMT5 (symmetric dimethylation of arginine (SDMA) in MCF-7 cells); experiment: PRMT5 Cell Target Engagement (TE) Assay (SDMA, high content imaging); assay type: cell-based; details: Homo sapiens, MCF7, 72 h, treated for 3 days, top compound concentration of 10000 nM
Excerpt: PRMT5 Cell Target Engagement (TE) Assay
The PRMT5 TE assay is a biomarker assay for identifying compounds that inhibit symmetric dimethylation of arginine (SDMA) of PRMT5 substrates. This assay detects symmetrically dimethylated nuclear proteins using high content imaging technology. Detection of the expression of symmetrically dimethylated nucleo proteins is through a mixture of primary rabbit monoclonal antibodies to SDMA (CST 13222), which in turn recognized by an Alexafluor 488 dye-conjugated anti-rabbit IgG secondary antibody. The IN Cell Analyzer 2200 measures nuclear Alexafluor 488 fluorescent dye intensity that is directly related to the level of expression of symmetrically dimethylated nuclear proteins at the single cell level. Nuclear AF488 dye intensities are compared to the mean value for DMSO treated cells […] to report percent of inhibition for each compound-treated well.
In this assay, the cell potency (EC50) of each compound was determined from a ten point (1:3 serial dilution; top compound concentration of 10000 nM) titration curve using the following outlined procedure. Each well of a BD falcon collagen coated black/clear bottom 384-well plate was seeded with 4000 MCF-7 cells and allowed to attach for 5 hours. Media from cell plate was removed at 0.5 mm above the bottom of the plate and replaced with 30 μL of fresh media containing 1.2× compounds in 0.1% DMSO. Cells were treated for 3 days in 37° C. CO2 incubator. On day 3, cells were fixed with Cytofix, permeabilized with 0.4% Triton-X-100/Cytofix, and washed with D-PBS without Ca/Mg. Cells were blocked with Licor Odessey blocking reagent for one hour at room temperature, followed by incubation with anti-SDMA (1:1000) antibody at 4° C. overnight. 1° antibody was removed, followed by three washings with DPBS without Ca/Mg and 0.05% Tween20. Hoechst (5 μg/ml), Cell Mask deep stain (1:2000) and Alexa488-conjugated goat anti-rabbit IgG (2 μg/mL) was added for 1 hour at room temperature. A final washing step (three washes) was performed before sealing plate for imaging on In Cell Analyzer 2200. Images from analyzer were uploaded to Columbus (at WP) for image analysis. IC50 values were determined by 4 parameters robust fit of percent fluorescence units vs. (Log10) compound concentrations.

[2] = biological target: Full-length (FL)-PRMT5-MEP50 enzyme complex (Homo sapiens (Human), UniProt O14744); experiment: PRMT5-MEP50 Enzyme Methylation Assay (SAMDI); assay type: biochemical; details: 0.5 nM PRMT5-MEP50, 75 nM biotinylated H4R3(Me1) peptide, 15 μM SAM, 150 minutes at 37° C.
Chain of Full-length (FL)-PRMT5-MEP50 enzyme complex (O14744 whole entry): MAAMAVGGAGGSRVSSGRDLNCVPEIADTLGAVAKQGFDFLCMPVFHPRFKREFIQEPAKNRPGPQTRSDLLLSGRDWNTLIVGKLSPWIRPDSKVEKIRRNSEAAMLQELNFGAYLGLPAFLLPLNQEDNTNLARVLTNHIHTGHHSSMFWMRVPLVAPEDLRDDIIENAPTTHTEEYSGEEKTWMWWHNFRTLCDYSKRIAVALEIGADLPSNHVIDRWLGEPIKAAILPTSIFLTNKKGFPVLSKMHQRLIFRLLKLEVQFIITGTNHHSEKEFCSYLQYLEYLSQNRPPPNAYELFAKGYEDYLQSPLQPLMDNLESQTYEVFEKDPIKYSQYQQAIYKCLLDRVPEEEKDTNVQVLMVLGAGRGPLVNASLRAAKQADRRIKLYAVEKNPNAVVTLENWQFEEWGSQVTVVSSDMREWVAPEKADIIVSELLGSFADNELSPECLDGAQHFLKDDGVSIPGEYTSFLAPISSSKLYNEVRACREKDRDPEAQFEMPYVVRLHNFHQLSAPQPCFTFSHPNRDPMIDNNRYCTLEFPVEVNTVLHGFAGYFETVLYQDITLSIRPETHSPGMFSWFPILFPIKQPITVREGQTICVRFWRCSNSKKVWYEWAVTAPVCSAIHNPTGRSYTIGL
Chain of Full-length (FL)-PRMT5-MEP50 enzyme complex (Q9BQA1 whole entry partner): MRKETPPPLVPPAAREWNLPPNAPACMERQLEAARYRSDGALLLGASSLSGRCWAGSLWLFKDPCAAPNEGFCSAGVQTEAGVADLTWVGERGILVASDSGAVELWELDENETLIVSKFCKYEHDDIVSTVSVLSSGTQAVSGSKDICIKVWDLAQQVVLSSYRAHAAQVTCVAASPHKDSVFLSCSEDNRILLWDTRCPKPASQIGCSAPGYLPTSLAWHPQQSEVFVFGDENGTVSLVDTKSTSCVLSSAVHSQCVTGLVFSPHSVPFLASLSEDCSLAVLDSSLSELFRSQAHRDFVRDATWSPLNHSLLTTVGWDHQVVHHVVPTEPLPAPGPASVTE
Protocol: PRMT5-MEP50 Enzyme Methylation Assay
PRMT5/MEP50 biochemical assay is a direct measurement of the methylation activity of the enzyme complex on a short peptide substrate derived from the N-terminus of H4 histone. Methylation experiment is performed with recombinant protein. The assessment of inhibitory effect (IC50) of small molecules is measured by the effectiveness of the compounds to inhibit this reaction.
In this assay, the potency (IC50) of each compound was determined from a twenty-point (1:2 serial dilution; top compound concentration of 100000 nM) titration curve using the following outlined procedure. To each well of a white ProxiPlus 384 well-plate, 100 nL of compound (1% DMSO in final assay volume of 10 μL) was dispensed, followed by the addition of 8 μL of 1× assay buffer (50 mM Bicine pH 8.0, 1 mM DTT, 0.004% Tween20, 0.01% BSA) containing 0.5 nM of Full-length (FL)-PRMT5-MEP50 enzyme complex (recombinant proteins from baculovirus-transfected Sf21 cells: FL-PRMT5; MW=[…] and FL-MEP50; MW=38614). Plates were sealed and placed in a 37° C. humidified chamber for 30 minutes pre-incubation with compounds. Subsequently, each reaction was initiated by the addition of 2 μL 1× assay buffer containing 75 nM biotinylated H4R3(Me1) peptide, and 15 μM S-(5′-Adenosyl)-L-Methionine Chloride (SAM). The final reaction in each well of 10 μL consists of 0.5 nM PRMT5-MEP50,75 nM biotinylated-peptide, and 15 μM SAM. Methylation reactions were allowed to proceed for 150 minutes in a sealed plate at 37° C. Reactions were immediately quenched by the addition of 1 μL of 10% formic acid. Plates were then frozen and shipped to SAMDI™ Tech Inc. to determine the percent conversion from […]. IC50 values were determined by 7 parameters biphasic fit model plotting the percent product conversion vs. (Log10) compound concentrations.

[3] = system: PRMT5 (symmetrical dimethylation of arginine in TE11 cells); experiment: PRMT5 Biomarker Assay (symmetrical dimethylation of arginine, Di-Methyl Histone H4 Arginine 3); assay type: cell-based; details: Homo sapiens, TE-11, 72 hours incubation, anti-Di-Methyl Histone H4 Arginine 3 antibody
Protocol: Compounds of the Invention may be Tested for Potency to Inhibit Symmetrical Dimethylation of Arginine in the Following Assay:
The cell line TE11 was seeded at a density of 6,000 cells per well in 96 well optical quality tissue culture plates in DME medium and 10% foetal bovine serum, and allowed to adhere for 5 hours under standard culture conditions (37 degree Celsius, 5% CO2). Compound dilutions prepared in DMSO were added to the medium, with negative control wells reserved for treatment with DMSO only and maximum inhibition controls receiving a potent PRMT5 inhibitor compound at 1 μM concentration. After incubation for 72 hours, the cells were fixed with 3.7% formaldehyde in PBS for 30 minutes at room temperature, washed with phosphate buffer saline and blocked with Odyssey blocking buffer (LI-COR, Lincoln, Nebr.). Rabbit anti-Di-Methyl Histone H4 Arginine 3 specific antibody (Epigentek) in Odyssey blocking buffer was added and incubated for 14 hours at 4 degree Celsius. After washing, anti-rabbit secondary antibody labelled with Alexa647 dye (LifeTechnologies) and Hoechst 33342 (1 μg/mL, SigmaAldrich) were added for 1 hour incubation. Plates were washed and read on a PerkinElmer Envision 2103 in fluorescence intensity scanning mode (24 scans across the well area). The plates were imaged on a PerkinElmer Phenix high content imaging platform. Using a Columbus image analysis pipeline, individual nuclei were located by Hoechst 33342 stain and the methylation level was calculated from the Alexa647-related intensity in the same area. IC50 values were obtained from the mean Alexa647-related intensity per cell by calculating percent inhibition (% I) for each well relative to controls on the same plate (% I=(I−CN)/(CP−CN) where CN/CP are the averages of the negative/maximum inhibition controls, respectively), then fitting the % I data vs. compound concentration [I] to % I=(A+((B−A)/(1+((C/[I])^D)))) where A is the lower asymptote, B is the upper asymptote, C is the IC50 value, and D is the slope.

[4] = biological target: Full-length PRMT5 enzyme co-expressed with His6-MEP50 (Homo sapiens (Human), UniProt O14744); experiment: PRMT5 Biochemical Assay (Transcreener EPIGEN methyltransferase, fluorescence polarisation); details: histone H4 derived peptide substrate 1 μM, 1 μM S-Adenosyl methionine, 4 hours at 37 degree Celsius
Chain of Full-length PRMT5 enzyme co-expressed with His6-MEP50 (O14744 whole entry): as the sequence (O14744 whole entry) above
Chain of Full-length PRMT5 enzyme co-expressed with His6-MEP50 (Q9BQA1 whole entry partner): as the sequence (Q9BQA1 whole entry partner) above
Protocol: Compounds of the Invention may be Tested for In Vitro Activity in the Following Assay:
A histone H4 derived peptide is used as substrate (amino acid sequence: […]NH2). Full-length PRMT5 enzyme (NCBI Reference sequence NP_006100.2) was co-expressed with His6-MEP50 in insect cells and purified via Nickel immobilized metal affinity and gel filtration chromatography (“the enzyme”).
The 6 μL reactions are run in Greiner brand black 384-well low volume assay plates. All reactions contained assay buffer (phosphate buffered saline, 0.01% (v/v) Tween-20, 0.01% (w/v) albumin from chicken egg white, 1 mM Dithiothreitol, 1 μM peptide substrate, 1 μM S-Adenosyl methionine, and 15 ng/reaction enzyme, with the enzyme being omitted from negative control reactions. Compounds were added in a volume of 100 nL from dilution series prepared in DMSO, positive and negative control reactions receiving the same volume DMSO without compound. The plates were sealed with adhesive seals and incubated for 4 hours at 37 degree Celsius. Reaction progress was measured using the Transcreener™ EPIGEN methyltransferase assay (BellBrook Labs, Madison, Wis.) as recommended by the manufacturer. To each reaction 2 μL detection mix were added, containing coupling enzymes, fluorescence polarisation tracer, and AMP antibody. Plates were incubated for 90 minutes before being read on a Perkin Elmer EnVision™ plate reader in fluorescence polarisation mode. IC50 values were obtained from the raw readings by calculating percent inhibition (% I) for each reaction relative to controls on the same plate (% I=(I−CN)/(CP−CN) where CN/CP are the averages of the negative/positive reactions, respectively), then fitting the % I data vs. compound concentration [I] to % I=(A+((B−A)/(1+((C/[I])^D)))) where A is the lower asymptote, B is the upper asymptote, C is the IC50 value, and D is the slope.

[5] = first EC50 of biphasic fit, read-out: Enzyme Methylation Assay (EC50—1)
[6] = second EC50 of biphasic fit, read-out: Enzyme Methylation Assay (EC50—2)
[7] = Enzyme Methylation Assay (EC50—1, nM), first EC50 of biphasic fit

Structure (SMILES) | EC50 [1] [µM] | EC50 [2, 5] [nM] | EC50 [2, 6] [nM] | IC50 [3] [µM] | IC50 [4] [µM] | EC50 [2, 7] [nM]
COc1ccc2c(c1)CN[C@H]([C@H](O)CNC(=O)c1cccnc1)C2 [Example 12] | 4.64 | 32 | 11600 |  |  | 
COC(=O)N1CCC(Nc2cc(C(=O)NC[C@@H](O)[C@@H]3Cc4ccc(OC)cc4CN3)ccn2)CC1 [Example 18] | 0.019 | 0.79 | 185 |  |  | 
CCc1ccc2c(c1)CN[C@H]([C@H](O)CNC(=O)c1cc(NC3CCN(C(C)=O)CC3)ncn1)C2 [Example 16] | 0.846 | 7 | 3700 |  |  | 
CCOc1cc(-c2nnc(C3CC3)o2)ccc1C(=O)NC[C@@H](O)[C@@H]1Cc2ccc(OC)cc2CN1 [Example 6, 4-(5-cyclopropyl-1,3,4-oxadiazol-2-yl)-2-ethoxy-N-{(2R)-2-hydroxy-2-[(3S)-7-methoxy-1,2,3,4-tetrahydroisoquinolin-3-yl]ethyl}benzamide] | 0.203 | 2 | 781 |  |  | 
CC(=O)N1CCC(Nc2cc(C(=O)NC[C@@H](O)[C@@H]3Cc4ccc(C#N)cc4CN3)ncn2)CC1 [Example 17] | 10 | 180 | 34900 |  |  | 
COc1ccc2c(c1)CN[C@H]([C@H](O)CNC(=O)c1cc(NC3COC3)ncn1)C2 [Example 4, N—((R)-2-hydroxy-2-((S)-7-methoxy-1,2,3,4-tetrahydroisoquinolin-3-yl)ethyl)-6-(oxetan-3-ylamino)pyrimidine-4-carboxamide] |  | 21 | 8430 |  |  | 
COc1ccc2c(c1)CN[C@H]([C@H](O)CNC(=O)c1ccc(-c3ncnn3C3CC3)cc1)C2 [Example 9] | 0.07 | 0.56 | 334 |  |  | 
COc1ccc2c(c1)CN[C@H]([C@H](O)CNC(=O)c1ccc(-c3nnc(C(C)(C)C)o3)cc1)C2 [Example 7] | 0.167 | 3 | 994 |  |  | 
CCOc1cc(-c2nnc(C)o2)ccc1C(=O)NC[C@@H](O)[C@@H]1Cc2ccc(OC)cc2CN1 [Example 5, 2-ethoxy-N-{(2R)-2-hydroxy-2-[(3S)-7-methoxy-1,2,3,4-tetrahydroisoquinolin-3-yl]ethyl}-4-(5-methyl-1,3,4-oxadiazol-2-yl)benzamide] | 2.15 | 2 | 890 |  |  | 
COc1ccc2c(c1)CN[C@H]([C@H](O)CNC(=O)c1ccc(C(=O)N3C4CCC3COC4)cc1)C2 [Example 2, 4-(3-Oxa-8-azabicyclo[3.2.1]octane-8-carbonyl)-N—((R)-2-hydroxy-2-((S)-7-methoxy-1,2,3,4-tetrahydroisoquinolin-3-yl)ethyl)benzamide] | 0.017 |  | 126 | 0.0004 | 0.018 | 0.62
CC(=O)N1CCC(Nc2cc(C(=O)NC[C@@H](O)[C@@H]3Cc4ccc(C(F)(F)F)cc4CN3)ncn2)CC1 [Example 15] | 2.19 | 23 | 7230 |  |  | 
O=C(NC[C@@H](O)[C@@H]1Cc2ccc(C(F)F)cc2CN1)c1ccc(C(=O)N2C3CCC2COC3)cc1 [Example 11] | 0.135 |  | 451 |  |  | 0.93
COc1ccc2c(c1)CN[C@H]([C@H](O)CNC(=O)c1ccc(-c3ncc4n3CCCC4)cc1)C2 [Example 8] | 0.08 | 0.62 | 225 |  |  | 
CCOc1cc(C(=O)N2C3CCC2COC3)ccc1C(=O)NC[C@@H](O)[C@@H]1Cc2ccccc2CN1C [Example 3, 4-(3-Oxa-8-azabicyclo[3.2.1]octane-8-carbonyl)-2-ethoxy-N—((R)-2-hydroxy-2-((S)-2-methyl-1,2,3,4-tetrahydroisoquinolin-3-yl)ethyl)benzamide 2,2,2-trifluoroacetate] | 5.44 |  | 574 | 0.00712 | 1.01 | 47
COc1ccc2c(c1)CN[C@H]([C@H](O)CNC(=O)c1ccccc1Cl)C2 [Example 14] | 3.2 | 12 | 4280 |  |  | 
CCOc1ncccc1C(=O)NC[C@@H](O)[C@@H]1Cc2ccc(OC)cc2CN1 [Example 13] | 4.66 | 21 | 8080 |  |  | 
